Patent US20250177303A1, “A DRUG NANOCARRIER SYSTEM TO DELIVER A COMBINATION OF TLR AGONISTS AND/OR A LIPOXIN PLUS IMMUNOGENIC CELL DEATH INDUCING CHEMOTHERAPEUTIC AGENTS FOR CANCER IMMUNOTHERAPY” (The Regents of the University of California, priority 2022, published 2025)
“Also recorded” adds a separate entry of the source. Each block holds one compound with its values, some of them ahead of it.

Legend:
[1] = test system: TGF-β activated hPSCs; test: IL-6 secretion from TGF-β activated human pancreatic stellate cells (ELISA); assay type: cell-based; details: 1-100 nM LXA4, 48 h, TGF-β 20 ng/mL
Description: HPaSteCs were seeded at 2500 cells/well in a 96-well plate and activated with TGF-p (20 ng/mL) overnight. The next day, hPSCs were treated with 1-100 nM of LXA4 in free and liposomal form. After 48 h of incubation, the supernatant was collected and analysed for IL-6 secretion with ELISA. […] A possible explanation is provided by the schematic in FIG. 11, panel A.

[2] = cited from earlier work
[3] = test system: LN-resident dendritic cells (LN-DCs); test: Subcutaneous KPC tumor model, flow cytometry of inguinal lymph node dendritic cells; assay type: in vivo, B6129SF1/J mice; details: inguinal lymph nodes
Text: Subcutaneous tumor implantation in the rear animal flank allows lymphatic drainage to the regional inguinal lymph nodes (LNs), which were harvested to assess therapeutic impact on LN-resident dendritic cells (LN-DCs). This reasoning is premised on the possibility that LN participation in the cancer immunity cycle may be able to strengthen the ICD response by increasing recruitment of newly-activated cytotoxic T-cells back to the principal tumor site. Following inguinal LN harvesting and cellular release, initial flow cytometry gating selected singlet live cells (FIG. 26). Further gating on the CD11c^+/CD45^+ DC subset was used to quantify CD80 and CD86 expression, representative of the surface receptors on an activated DC subset, participating in T-cell activation. […] We also obtained evidence that the response boosting involves LNDC participation as a key component of the cancer immunity cycle.
Following animal sacrifice, photographs were obtained of the harvested tumors, which were subsequently fixed in 10% formalin for IHC staining by the UCLA Translational Pathology Core Laboratory. Image processing was performed using Aperio ImageScope software (Leica). IHC analysis was performed to assess tumor staining intensity for CD8 and FoxP3. Additionally, we assessed the immune response in the draining inguinal lymph nodes (LNs) harvested from the sacrificed animals. […]

[4] = test system: RAW264.7 macrophages; test: RAW264.7 macrophage activation (CD80 flow cytometry, IL-12p40 and TNF-α ELISA); assay type: cell-based, murine; details: RAW264.7, 10 μM, 21 h
Description: (§1) Having confirmed effective intracellular delivery of TLR7 activation, the next task was to determine the effect of the 3M-silicasome in the ex vivo activation of macrophages and DCs. These assays were performed in RAW264.7 macrophages and murine bone marrow-derived dendritic cells (BMDCs). RAW264.7 and BMDCs were treated with 10 μM each of R848 (positive control), free 3M-052, or the 3M-silicasome for 21 hours before assessing CD80 expression (FIG. 16, panels C and E). […] We also quantified the release of two key pro-inflammatory cytokines, IL-12p40 and TNF-α by ELISA in the same cell types, using similar stimuli.
RAW264.7 cells (1×10^5 cells/well) were cultured in 48-well plates for 24 h, before the addition of PBS or 10 μM concentrations of R848, free 3M-052 or the 3M-silicasome for a further 21 h. Immature BMDCs (5×10^5 cells/well) were cultured in 24-well plates, receiving the same dose of R848, free 3M-052, and 3M-silicasome for 21 h. […]
(§2) For flow cytometry analysis of surface markers, cells were washed with cell staining buffer, before staining RAW264.7 cells with anti-CD80 or BMDCs with FITC-conjugated anti-CD11c and anti-CD80 on ice, according to the manufacturer's instructions. The assessment of the differentiation and activation markers were evaluated by flow cytometry (LSRFortessa; BD Biosciences), analyzed by FlowJo software.

[5] = test system: murine bone marrow-derived dendritic cells (BMDCs); test: BMDC activation (flow cytometry, IL-12p40 and TNF-α ELISA); assay type: cell-based; details: 10 μM, 21 h
Description: as §1
Bone marrow-derived dendritic cells (BMDCs) were prepared according to our established procedure, with a slight modification.^[42] Bone marrow cells flushed from the femur and tibia of B6/129 mice were collected and red blood cells were lysed by incubating in ACK Lysing Buffer. […]
as §2

[6] = Subcutaneous KPC tumor model, body weight and blood parameters (safety); assay type: in vivo, B6129SF1/J mice; details: blood on day 21, 4 IV injections, 3M-052 2 mg/kg, IRIN 40 mg/kg
Description: Table 10. A subcutaneous KPC tumor model was established in B6129SF1/J mice. […] Blood was collected from the sacrificed animals on day 21. The biochemical parameters were assayed by UCLA Division of Laboratory Animal Medicine (DLAM) diagnostic laboratory services. These parameters include white blood cell (WBC), alkaline phosphatase (ALP), aspartate aminotransferase (AST), alanine aminotransferase (ALT), blood urea nitrogen (BUN), creatinine, calcium, and phosphorus.
A subcutaneous KPC tumor model was established in immunocompetent B6129SF1/J mice, using protocols approved by the UCLA Animal Research Committee. Briefly, 100 μL of a DMEM/Matrigel (1:1 v/v) suspension, containing 1×10^6 KPC cells, was subcutaneously injected into the right flank of female B6129SF1/J mice, 8-10 weeks old. […] Injections were given every 3-4 days, using the dosing schedule that delivers the equivalent of 2 mg/kg and 40 mg/kg, respectively, for 3M-052 and IRIN. Subcutaneous KPC tumor size and animal weight were monitored every 2 days. The tumor size was calculated according to the formula: (Width^2×Length)/2.
We also collected blood for separating serum after centrifugation at 3500 rpm for 20 min. The following biochemical parameters were assayed by UCLA Division of Laboratory Animal Medicine (DLAM) diagnostic laboratory services: white blood cell (WBC), alkaline phosphatase (ALP), aspartate aminotransferase (AST), alanine aminotransferase (ALT), blood urea nitrogen (BUN), creatinine, calcium, and phosphorus.

[7] = test system: subcutaneous KPC tumor; test: Subcutaneous KPC tumor model, tumor growth (3M-052/IRIN carriers); details: for Inhibition of tumor growth compared to saline: day 20, p<0.001
Description: The schematic in FIG. 6, panel A depicts the treatment outline for conducting the subcutaneous KPC tumor experiment. […] Tumor-bearing mice were randomly divided into 5 groups (n=6 or 7), which received IV administration of the different treatment modalities, every 3-4 days on 4 occasions. […] IRIN was administered at 40 mg/kg while the 3M-052 dose was delivered at 2 mg/kg. FIG. 6, panel B, depicts the average subcutaneous KPC tumor growth kinetics, as determined by tumor volume. Tumor size was measured every 2 days, and tumor volume was calculated by the formula: tumor volume (mm^3)=(length in mm)×(width in mm)^2/2.
KPC cells were subcutaneously injected into the right flank of female B6129SF1/J mice for in vivo experimentation. […] Subcutaneous tumor sizes were monitored every 2 days.

[8] = Pharmacokinetics of 3M-052 and IRIN in plasma (HPLC); assay type: in vivo, healthy B6129SF1/J mice; details: single IV, 3M-052 2 mg/kg, IRIN 40 mg/kg
Description: Free 3M-052 and IRIN were extracted by methanol and measured by HPLC.
The harvested tumor and organ samples, collected in the drug biodistribution experiment, were weighed and homogenized. The collected plasma, tumor, and organ homogenates were extracted in methanol, using 1:5, 1:4, and 1:3 v/v dilutions, respectively. The extracts were vortexed for 20 s and centrifuged at 13000 rpm for 10 min, following which the drug-containing supernatants were filtrated through 0.22 μm filters to perform HPLC analysis. The HPLC system is operated by a Knauer Smartline Pneumatic Pump, C18 column, K-2600 spectrophotometer, and Gina data acquisition software. The mobile phase consisted of mobile phase A (0.01% trifluoroacetic acid in water) and mobile phase B (0.01% trifluoroacetic acid in methanol) as 70% A and 30% B (v/v). A 20 μL of the sample was injected to measure the 3M-052 and IRIN absorptions at 320 and 360 nm. The 3M-052 and IRIN standard curves were generated over the maximal concentrations of 40 and 100 μg/mL respectively.

[9] = test system: KPC cells; test: In vitro killing of KPC cells, CCK-8 assay; assay type: cell-based, murine; details: 50-500 μM IRIN, 48 h
Description: 20 μL of CCK-8 solution was added to each well and the plates were incubated for an additional 1-2 h in an incubator. The absorbance of each well was assessed at 450 nm in a microplate reader. Cytotoxicity (% dead cells) was calculated using the formula: (ODsample−ODblank)/(ODcontrol−ODblank)×100.

[10] = test system: orthotopic KPC-luc tumor; test: Orthotopic KPC-luc tumor model, efficacy (IVIS bioluminescence, tumor weight, metastasis); assay type: in vivo, B6129SF1/J mice
Description: FIG. 8, panel A, depicts the experimental outline of the study conducted by orthotopic implantation KPC-luc tumor cells in the pancreatic tail of syngeneic mice. In brief, 50 μL of PBS/Matrigel (6:4 v/v), containing 0.8×10^6 KPC-luc cells was orthotopically injected into the tail of the pancreas of female B6129SF1/J mice 8 days before the onset of treatment. […] FIG. 8, panel C depicts the average quantitative tumor bioluminescence in each group at day 21, as calculated by IVIS software. **p<0.01.
Mice were sacrificed on day 21. FIG. 8, panel D, depicts the IVIS imaging performed on the ex vivo explanted tumor tissues and potential metastatic organs on day 21. […] FIG. 8, panel G depicts animal body weights over a time period of 21 days.
50 μL of a DMEM/Matrigel (6:4 v/v) suspension, containing 8×10^5 KPC-luc cells, was injected into the tail of the pancreas in female B6129SF1/J mice by a survival surgery procedure. […] The dose equivalents of 3M-052 and IRIN were 2 mg/kg and 40 mg/kg per dose, respectively. Animal weight was monitored every 2 days.
To perform the bioluminescence imaging of the luciferase-expressing tumors, mice were injected intraperitoneal with 50 mg/kg D-Luciferin on day 7, 15, 18, and 21. Ex vivo IVIS images of tumors and major organs, collected from sacrificed animals, were obtained on day 21. In addition, we also obtained photographs and weighed the harvested tumors, which were subsequently fixed in 10% formalin for the performance of IHC staining.

[11] = test system: subcutaneous KPC tumor; test: IHC of T lymphocytes and perforin in KPC tumors (lipo-LXA4-IRIN study); assay type: in vivo, B6129SF1/J mice; details: normalized over no treatment control

SMILES: CCCCC[C@H](O)/C=C/C=C\C=C\C=C\[C@@H](O)[C@@H](O)CCCC(=O)O [LXA4, lipoxin A4]
- IL-6 release [1]: significantly inhibited IL-6 release in a concentration-dependent manner

SMILES: CC(=O)O[C@@]12CO[C@@H]1C[C@H](O)[C@@]1(C)C(=O)[C@H](O)C3=C(C)[C@@H](OC(=O)[C@H](O)[C@@H](NC(=O)OC(C)(C)C)c4ccccc4)C[C@@](O)([C@@H](OC(=O)c4ccccc4)[C@H]21)C3(C)C [docetaxel]
- Ethanol solubility [2]: ~100 mg/mL

- Clearance from the blood circulation [8]: rapidly cleared
SMILES: CCCCCCCCCCCCCCCCCC(=O)NCCCCOn1c(CCCC)nc2c(N)nc3ccccc3c21 [free 3M-052, Telratolimod]
- CD80 and CD86 expression in CD11c+/CD45+ population ([3]; 4 rounds of treatment): up-regulated
- Percentage of CD45+/CD11c+ LN-DCs ([3]; day 21, compared to saline and free IRIN): increase in the percentage of CD45^+/CD11c^+ LN-DCs
- CD80 cell surface expression [4]: significant increase in cell surface expression of a maturation marker
- IL-12p40 and TNF-α release ([4]; ELISA): higher responses
- CD80 cell surface expression [5]: significant increase in cell surface expression of a maturation marker
- IL-12p40 and TNF-α release ([5]; ELISA): higher responses
- ALP [6]: 64.3 ± 7.6 U/L
- ALT [6]: 32.3 ± 11.9 U/L
- AST [6]: 95.0 ± 14.0 U/L
- BUN [6]: 16.0 ± 2.0 mg/dL
- Calcium [6]: 8.7 ± 0.2 mg/dL
- Creatinine [6]: 0.0 ± 0.0 mg/dL
- Phosphorous [6]: 7.2 ± 1.3 mg/dL
- WBC [6]: 3.5 ± 0.1 10^3/μL
- Effect on tumor volume growth ([7]; IV every 3-4 days x4, 3M-052 2 mg/kg, IRIN 40 mg/kg): modest effects
- Inhibition of tumor growth compared to saline [7]: statistically significant compared to the saline control
- Inhibition of tumor growth compared between treatments ([7]; tumor volume, comparison among treatment groups): significantly reduced compared to treatment with single-drug or dual-drug silicasomes

SMILES: CCc1c2c(nc3ccc(OC(=O)N4CCC(N5CCCCC5)CC4)cc13)-c1cc3c(c(=O)n1C2)COC(=O)[C@]3(O)CC [free IRIN, Irinotecan]
- Cytotoxicity to KPC cells [9]: dose-dependent cytotoxicity, with a steeper decline in viability
- ALP [6]: 91.0 ± 1.7 U/L
- AST [6]: 66.3 ± 22.2 U/L
- BUN [6]: 17.0 ± 1.0 mg/dL
- Calcium [6]: 8.9 ± 0.1 mg/dL
- Creatinine [6]: 0.0 ± 0.1 mg/dL
- Phosphorous [6]: 7.4 ± 0.5 mg/dL
- WBC [6]: 3.9 ± 0.5 10^3/μL
- Tumor bioluminescence intensity ([10]; day 21, IV every 3 days x4, compared to saline or free IRIN): little effect on orthotopic tumors
- Metastatic spread to surrounding organs ([10]; ex vivo IVIS imaging, day 21): same metastatic burden; also recorded: evidence for splenic involvement
- Perforin signal [11]: increase in the perforin levels compared to the no-treatment control
- Inhibition of tumor growth compared to saline [7]: statistically significant compared to the saline control

SMILES: O=C1c2c(O)ccc(O)c2C(=O)c2c(NCCNCCO)ccc(NCCNCCO)c21 [mitoxantrone]
- Water solubility ([2]; drugbank): 89 mg/mL
